From ChEMBL document CHEMBL1140135 (J Med Chem, 2008)
pIC50: −log10 of the molar value.

What was measured:
[1] = target: T1, Bifunctional dihydrofolate reductase-thymidylate synthase (Toxoplasma gondii, UniProt Q07422)
T1 sequence (Q07422 whole entry): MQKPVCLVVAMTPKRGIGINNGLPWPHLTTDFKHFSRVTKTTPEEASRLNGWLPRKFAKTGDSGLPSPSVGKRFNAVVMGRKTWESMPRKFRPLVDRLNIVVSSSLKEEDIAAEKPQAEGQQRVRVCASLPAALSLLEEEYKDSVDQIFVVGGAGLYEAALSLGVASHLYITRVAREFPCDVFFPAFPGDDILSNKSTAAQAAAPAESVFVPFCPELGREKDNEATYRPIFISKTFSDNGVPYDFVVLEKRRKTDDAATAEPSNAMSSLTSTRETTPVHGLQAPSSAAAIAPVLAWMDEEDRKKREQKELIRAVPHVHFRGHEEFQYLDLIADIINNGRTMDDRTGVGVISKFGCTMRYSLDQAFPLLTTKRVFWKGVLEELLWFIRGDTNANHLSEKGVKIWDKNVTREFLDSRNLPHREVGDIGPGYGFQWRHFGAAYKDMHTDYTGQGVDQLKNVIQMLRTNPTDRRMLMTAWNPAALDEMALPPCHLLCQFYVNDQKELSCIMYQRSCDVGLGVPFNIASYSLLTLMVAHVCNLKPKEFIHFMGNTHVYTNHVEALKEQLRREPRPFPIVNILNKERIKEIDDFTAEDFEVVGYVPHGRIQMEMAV
Description: Inhibition of Toxoplasma gondii DHFR

[2] = target: T1, Bifunctional dihydrofolate reductase-thymidylate synthase; remark: listed apart in the source
Description: Inhibition of Toxoplasma gondii thymidylate synthase

Dihydrofolate reductase = target: T2, Dihydrofolate reductase (Homo sapiens, UniProt P00374)
T2 sequence (P00374 whole entry): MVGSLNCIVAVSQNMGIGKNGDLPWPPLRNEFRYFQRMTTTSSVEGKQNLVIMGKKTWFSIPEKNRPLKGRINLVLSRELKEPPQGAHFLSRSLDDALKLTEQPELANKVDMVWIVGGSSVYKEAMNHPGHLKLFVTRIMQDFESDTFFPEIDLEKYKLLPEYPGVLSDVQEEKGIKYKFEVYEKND
Description: Inhibition of human recombinant DHFR

Thymidylate synthase = Thymidylate synthase (Homo sapiens, UniProt P04818)
Sequence of Thymidylate synthase (P04818 whole entry): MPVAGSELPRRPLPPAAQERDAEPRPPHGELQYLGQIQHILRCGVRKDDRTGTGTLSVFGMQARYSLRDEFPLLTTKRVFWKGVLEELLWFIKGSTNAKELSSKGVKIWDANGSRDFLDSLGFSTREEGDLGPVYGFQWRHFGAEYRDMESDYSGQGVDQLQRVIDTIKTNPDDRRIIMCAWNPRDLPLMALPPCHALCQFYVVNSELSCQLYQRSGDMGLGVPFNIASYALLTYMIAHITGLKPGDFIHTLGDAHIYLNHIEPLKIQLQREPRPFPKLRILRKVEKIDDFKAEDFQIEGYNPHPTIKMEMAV
Description: Inhibition of human thymidylate synthase

[3] = target: T3, Dihydrofolate reductase (Escherichia coli) (UniProt P0ABQ4); assay: Inhibition of Escherichia coli DHFR at >[…] uM
T3 sequence (whole entry): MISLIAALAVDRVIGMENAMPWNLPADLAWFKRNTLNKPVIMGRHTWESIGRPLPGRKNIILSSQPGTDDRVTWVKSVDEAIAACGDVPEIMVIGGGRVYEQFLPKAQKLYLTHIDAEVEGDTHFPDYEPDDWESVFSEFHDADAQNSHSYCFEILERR

Structure (SMILES) | pIC50 [1] | pIC50 [2] | pIC50 (Dihydrofolate reductase) | pIC50 (Thymidylate synthase) | inhibition [3] [%]
Cc1sc2nc(N)[nH]c(=O)c2c1Sc1ccc(Cl)cc1 | 7.51 | 5.59 | 5.82 | 6.59 | 
Cc1sc2nc(N)[nH]c(=O)c2c1Sc1ccccc1 | 6.92 | 5.08 | 5.46 | 5.92 | 
Cc1[nH]c2nc(N)[nH]c(=O)c2c1Sc1ccc(C(=O)N[C@@H](CCC(=O)O)C(=O)O)cc1 |  |  | 5.66 |  | 
Cc1sc2nc(N)[nH]c(=O)c2c1Sc1ccc(Cl)c(Cl)c1 | 7.55 | 5.92 |  | 6.96 | 0
Cc1sc2nc(N)[nH]c(=O)c2c1Sc1ccc([N+](=O)[O-])cc1 |  |  |  | 6.96 | 
Cc1sc2nc(N)[nH]c(=O)c2c1Sc1ccncc1 | 7.47 | 5.85 | 5.60 | 6.55 | 
Cc1sc2nc(N)[nH]c(=O)c2c1Sc1ccc(F)cc1 |  |  | 5.59 | 5.96 | 
Cc1sc2nc(N)[nH]c(=O)c2c1Sc1ccc2ccccc2c1 | 7.36 | 5.92 | 5.54 | 6.92 | 
Cc1sc2nc(N)[nH]c(=O)c2c1Sc1cc(Cl)cc(Cl)c1 | 7.19 | 5.64 | 5.25 | 6.00 | 0
